Measurements: ChEMBL document CHEMBL3621154 (Medchemcomm, 2014)

How the values were obtained:
[1] = biological target: T1, Amine oxidase [flavin-containing] B (Homo sapiens, UniProt P27338)
T1 sequence (P27338 whole entry): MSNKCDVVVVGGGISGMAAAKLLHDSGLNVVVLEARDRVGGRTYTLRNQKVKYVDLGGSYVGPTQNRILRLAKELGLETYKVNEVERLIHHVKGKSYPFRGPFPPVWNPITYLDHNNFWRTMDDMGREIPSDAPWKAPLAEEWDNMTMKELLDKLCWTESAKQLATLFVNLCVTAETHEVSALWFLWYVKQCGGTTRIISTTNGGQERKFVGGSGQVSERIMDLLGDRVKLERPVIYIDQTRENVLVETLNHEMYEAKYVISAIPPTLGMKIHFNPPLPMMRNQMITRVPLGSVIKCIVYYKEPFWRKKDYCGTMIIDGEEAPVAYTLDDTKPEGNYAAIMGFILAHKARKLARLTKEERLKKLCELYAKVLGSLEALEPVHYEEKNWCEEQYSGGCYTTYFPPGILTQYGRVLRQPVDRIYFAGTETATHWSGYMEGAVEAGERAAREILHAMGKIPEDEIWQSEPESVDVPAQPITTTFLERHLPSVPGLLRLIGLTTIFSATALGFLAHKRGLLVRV
Description: Inhibition of MAOB (unknown origin) by luminiscent assay

[2] = biological target: T2, Amine oxidase [flavin-containing] A (Homo sapiens, UniProt P21397)
T2 sequence (P21397 whole entry): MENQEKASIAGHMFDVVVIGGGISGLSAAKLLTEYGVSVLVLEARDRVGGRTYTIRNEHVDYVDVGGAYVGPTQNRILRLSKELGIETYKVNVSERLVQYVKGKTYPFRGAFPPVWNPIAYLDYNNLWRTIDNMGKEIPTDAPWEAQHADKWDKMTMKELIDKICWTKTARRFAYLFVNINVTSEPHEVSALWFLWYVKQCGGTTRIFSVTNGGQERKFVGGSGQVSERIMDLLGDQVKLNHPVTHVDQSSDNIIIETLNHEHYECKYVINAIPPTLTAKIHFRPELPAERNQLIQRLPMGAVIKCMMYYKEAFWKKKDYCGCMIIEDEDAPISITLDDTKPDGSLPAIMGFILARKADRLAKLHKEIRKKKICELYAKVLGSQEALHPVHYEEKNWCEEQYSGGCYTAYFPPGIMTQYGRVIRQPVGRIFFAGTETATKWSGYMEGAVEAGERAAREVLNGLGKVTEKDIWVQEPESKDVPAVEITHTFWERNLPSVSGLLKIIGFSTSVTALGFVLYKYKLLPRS
Description: Inhibition of MAOA (unknown origin) by luminiscent assay

| IC50 [1] | IC50 [2] | SMILES |
| --- | --- | --- |
| > 100 µM | > 100 µM | COc1ccccc1CNc1n[nH]c(NCc2ccccc2OC)n1 |
| > 100 µM | > 100 µM | Nc1nnc(NCc2c(Cl)cccc2Oc2ccccc2)[nH]1 |
